Where “and” joins values, the source holds several entries; their conditions need not be identical. Equal values may be shown once. Toxic doses and inconclusive results are not listed.
Test system: P388 leukemia ip, CD2F1 mice, survival T/C
Assay: NCI In Vivo Anticancer Drug Screen. Data for tumor model P388 Leukemia (intraperitoneal) in CD2F1 (CDF1) mice
Details: endpoint: median survival time, higher = longer survival
Outline: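 Mice carrying the transplanted tumor received test compound or vehicle. Survival was recorded in each group, and the value is the treated-group measurement divided by that of the vehicle-treated control group.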

[1] = dose: 50.0 mg/kg/injection, schedule: Q01DX005 (ip), vehicle: Klucel (hydroxypropylcellulose) (HPC)
[2] = dose: 100.0 mg/kg/injection, schedule: Q01DX005 (ip), vehicle: Klucel (hydroxypropylcellulose) (HPC)
[3] = dose: 200.0 mg/kg/injection, schedule: Q01DX005 (ip), vehicle: Klucel (hydroxypropylcellulose) (HPC)
[4] = dose: 50.0 mg/kg/injection, schedule: Q01DX005 (ip), vehicle: saline with Tween-80
[5] = dose: 100.0 mg/kg/injection, schedule: Q01DX005 (ip), vehicle: saline with Tween-80
[6] = dose: 200.0 mg/kg/injection, schedule: Q01DX005 (ip), vehicle: saline with Tween-80
[7] = dose: 100.0 mg/kg/injection, schedule: Q01DX009 (ip), vehicle: saline with Tween-80
[8] = dose: 200.0 mg/kg/injection, schedule: Q01DX009 (ip), vehicle: saline with Tween-80

Q: Which T/C [1] does the source give for `CC(Br)CCc1ccccc1Br` (stereo not given) here?
A: 101 % of control

Q: And the T/C [2]?
A: 93 % of control

Q: And the T/C [3]?
A: 97 % of control

Q: Which T/C [1] does the source give for `CN(C)C1c2cc(Br)ccc2-c2ccc(Br)cc21` here?
A: 95 % of control

Q: What about the T/C [2] of the same compound?
A: 105 % of control

Q: And the T/C [3]?
A: 110 % of control

Q: How did the T/C (dose: 50.0 mg/kg/injection, schedule: Q01DX009 (ip), vehicle: saline) turn out when `O=C(O)c1cccnc1C(=O)O` was run?
A: 105 % of control

Q: And the T/C (dose: 100.0 mg/kg/injection, schedule: Q01DX009 (ip), vehicle: saline)?
A: 96 % of control and 100 % of control and 111 % of control

Q: What about the T/C (dose: 200.0 mg/kg/injection, schedule: Q01DX009 (ip), vehicle: saline) of the same compound?
A: 86 % of control and 102 % of control and 97 % of control

Q: What about the T/C (dose: 400.0 mg/kg/injection, schedule: Q01DX009 (ip), vehicle: saline) of the same compound?
A: 100 % of control and 90 % of control

Q: How did the T/C [4] turn out when `CN1Cc2ccccc2[C@H]2C(c3ccccc3)=NN(c3ccccc3)[C@H]21` was run?
A: 103 % of control

Q: And the T/C [5]?
A: 94 % of control

Q: What about the T/C [6] of the same compound?
A: 92 % of control

Q: With `CC(=O)OC1C(C)OC(OC(=O)C2CCC3C(C2)OC2(CC(OC(=O)/C=C/c4ccccc4)C(C)CO2)C32CO2)C(OC2OC(C)C(O)C(OC(C)=O)C2O)C1O` (stereo not given) as the compound, how does the T/C (dose: 0.62 mg/kg/injection, schedule: Q01DX009 (ip), vehicle: saline + alcohol) read?
A: 97 % of control

Q: What about the T/C (dose: 0.75 mg/kg/injection, schedule: Q01DX005 (ip), vehicle: saline + alcohol) of the same compound?
A: 97 % of control

Q: And the T/C (dose: 1.25 mg/kg/injection, schedule: Q01DX009 (ip), vehicle: saline + alcohol)?
A: 105 % of control

Q: And the T/C (dose: 1.5 mg/kg/injection, schedule: Q01DX005 (ip), vehicle: saline + alcohol)?
A: 106 % of control

Q: What about the T/C (dose: 1.67 mg/kg/injection, schedule: Q01DX009 (ip), vehicle: saline + alcohol) of the same compound?
A: 113 % of control

Q: And the T/C (dose: 1.75 mg/kg/injection, schedule: Q01DX009 (ip), vehicle: saline + alcohol)?
A: 104 % of control

Q: And the T/C (dose: 2.5 mg/kg/injection, schedule: Q01DX009 (ip), vehicle: saline + alcohol)?
A: 105 % of control

Q: And the T/C (dose: 3.0 mg/kg/injection, schedule: Q01DX005 (ip), vehicle: saline + alcohol)?
A: 114 % of control

Q: What about the T/C (dose: 3.5 mg/kg/injection, schedule: Q01DX009 (ip), vehicle: saline + alcohol) of the same compound?
A: 108 % of control

Q: What about the T/C (dose: 5.0 mg/kg/injection, schedule: Q01DX009 (ip), vehicle: saline + alcohol) of the same compound?
A: 106 % of control

Q: And the T/C (dose: 6.0 mg/kg/injection, schedule: Q01DX005 (ip), vehicle: saline + alcohol)?
A: 115 % of control

Q: And the T/C (dose: 6.68 mg/kg/injection, schedule: Q01DX009 (ip), vehicle: saline + alcohol)?
A: 152 % of control

Q: And the T/C (dose: 7.0 mg/kg/injection, schedule: Q01DX009 (ip), vehicle: saline + alcohol)?
A: 110 % of control

Q: What about the T/C (dose: 13.35 mg/kg/injection, schedule: Q01DX009 (ip), vehicle: saline + alcohol) of the same compound?
A: 111 % of control

Q: And the T/C (dose: 14.0 mg/kg/injection, schedule: Q01DX009 (ip), vehicle: saline + alcohol)?
A: 118 % of control

Q: Which T/C [7] does the source give for `O=C(c1ccccc1)c1ccc2c(c1)-c1ccccc1-2` here?
A: 100 % of control

Q: And the T/C [8]?
A: 104 % of control

Q: And the T/C (dose: 400.0 mg/kg/injection, schedule: Q01DX009 (ip), vehicle: saline with Tween-80)?
A: 95 % of control

Q: Which results are given for `c1ccc2c(NCCCCCCCCNc3c4ccccc4nc4ccccc34)c3ccccc3nc2c1`?
A: T/C (dose: 0.62 mg/kg/injection, schedule: Q## X009 (ip), vehicle: lactic acid): 121 % of control; T/C (dose: 0.63 mg/kg/injection, schedule: Q01DX009 (ip), vehicle: other): 104 % of control and 114 % of control; T/C (dose: 1.25 mg/kg/injection, schedule: Q01DX009 (ip), vehicle: lactic acid): 161 % of control; T/C (dose: 1.25 mg/kg/injection, schedule: Q01DX009 (ip), vehicle: saline): 124 % of control; T/C (dose: 2.5 mg/kg/injection, schedule: Q01DX009 (ip), vehicle: lactic acid): 159 % of control; T/C (dose: 2.5 mg/kg/injection, schedule: Q## X009 (ip), vehicle: lactic acid): 154 % of control; T/C (dose: 10.0 mg/kg/injection, schedule: Q01DX009 (ip), vehicle: saline): 153 % of control; T/C (dose: 40.0 mg/kg/injection, schedule: Q01DX009 (ip), vehicle: saline): 90 % of control; T/C (dose: 80.0 mg/kg/injection, schedule: Q04DX003 (ip), vehicle: Klucel (hydroxypropylcellulose) (HPC)): 88 % of control

Q: What does the source list for `NC(Cc1ccccc1Cl)c1nn[nH]n1` (stereo not given)?
A: T/C (dose: 25.0 mg/kg/injection, schedule: Q04DX002 (ip), vehicle: saline with Tween-80): 99 % of control and 93 % of control; T/C (dose: 50.0 mg/kg/injection, schedule: Q04DX002 (ip), vehicle: saline with Tween-80): 107 % of control and 95 % of control and 96 % of control; T/C (dose: 100.0 mg/kg/injection, schedule: Q04DX002 (ip), vehicle: saline with Tween-80): 100 % of control; T/C (dose: 200.0 mg/kg/injection, schedule: Q04DX002 (ip), vehicle: saline with Tween-80): 98 % of control and 100 % of control

Q: With `CCOP(=O)(O)C1CCCC(C)[N-]1.CCOP(=O)(O)C1CCCC(C)[N-]1.[Ni+2]` (stereo not given) as the compound, how does the T/C (dose: 12.5 mg/kg/injection, schedule: Q04DX003 (ip), vehicle: Klucel (hydroxypropylcellulose) (HPC)) read?
A: 99 % of control

Q: What about the T/C (dose: 25.0 mg/kg/injection, schedule: Q04DX003 (ip), vehicle: Klucel (hydroxypropylcellulose) (HPC)) of the same compound?
A: 107 % of control

Q: What about the T/C (dose: 50.0 mg/kg/injection, schedule: Q04DX003 (ip), vehicle: Klucel (hydroxypropylcellulose) (HPC)) of the same compound?
A: 107 % of control

Q: With `C/C(=N/N)c1ccc(Br)cc1` as the compound, how does the T/C (dose: 6.25 mg/kg/injection, schedule: Q01DX009 (ip), vehicle: saline with Tween-80) read?
A: 100 % of control

Q: And the T/C (dose: 12.5 mg/kg/injection, schedule: Q01DX009 (ip), vehicle: saline with Tween-80)?
A: 104 % of control

Q: Which results are given for `CCOC(=O)C(=C/C=C/N(C)C)C(=O)OCC`?
A: T/C (dose: 100.0 mg/kg/injection, schedule: Q01DX001 (ip), vehicle: saline): 100 % of control; T/C (dose: 200.0 mg/kg/injection, schedule: Q01DX001 (ip), vehicle: saline): 104 % of control

Q: What does the source list for `CC(C)CC(NCc1ccccc1)C(=O)O` (stereo not given)?
A: T/C [4]: 95 % of control; T/C [5]: 100 % of control; T/C [6]: 95 % of control

Q: How did the T/C (dose: 60.0 mg/kg/injection, schedule: Q01DX005 (ip), vehicle: saline with Tween-80) turn out when `COc1cc(C(Nc2ccccn2)c2cc3c(cc2OC(C)=O)OCO3)cc(OC)c1OC` (stereo not given) was run?
A: 104 % of control

Q: What about the T/C (dose: 120.0 mg/kg/injection, schedule: Q01DX005 (ip), vehicle: saline with Tween-80) of the same compound?
A: 97 % of control

Q: And the T/C (dose: 240.0 mg/kg/injection, schedule: Q01DX005 (ip), vehicle: saline with Tween-80)?
A: 88 % of control

Q: Which results are given for `C=CC1C(C[C@@H]2c3cc(O)c(O)cc3CCN2C(C)=O)C(C(=O)OC)=CO[C@H]1OC1OC(CO)C(O)C(O)C1O` (stereo not given in full)?
A: T/C (dose: 60.0 mg/kg/injection, schedule: Q01DX005 (ip), vehicle: saline): 105 % of control; T/C (dose: 120.0 mg/kg/injection, schedule: Q01DX005 (ip), vehicle: saline): 103 % of control; T/C (dose: 240.0 mg/kg/injection, schedule: Q01DX005 (ip), vehicle: saline): 104 % of control

Q: Which results are given for `CCCC(=O)OCc1ccc(Cl)c(Cl)c1`?
A: T/C (dose: 25.0 mg/kg/injection, schedule: Q04DX003 (ip), vehicle: saline): 100 % of control; T/C (dose: 50.0 mg/kg/injection, schedule: Q04DX003 (ip), vehicle: saline): 104 % of control; T/C (dose: 100.0 mg/kg/injection, schedule: Q04DX003 (ip), vehicle: saline): 100 % of control

Q: With `CS(=O)(=O)OCc1cc(=O)c(OS(C)(=O)=O)co1` as the compound, how does the T/C [4] read?
A: 108 % of control

Q: What about the T/C [5] of the same compound?
A: 110 % of control

Q: What about the T/C [6] of the same compound?
A: 112 % of control

Q: How did the T/C (dose: 0.63 mg/kg/injection, schedule: Q01DX005 (ip), vehicle: Klucel (hydroxypropylcellulose) (HPC)) turn out when `COC(=O)C12OCC34C(CC5C(C)C6=CC(=O)OC6=CC5(C)C3C(O)C1O)OC(=O)C(O)C24` (stereo not given) was run?
A: 150 % of control

Q: And the T/C (dose: 1.25 mg/kg/injection, schedule: Q01DX005 (ip), vehicle: Klucel (hydroxypropylcellulose) (HPC))?
A: 169 % of control

Q: For `CCCCOC(C(=O)OCCN(CC)CC)(c1ccccc1)c1ccccc1`, which T/C [1] is on record?
A: 108 % of control

Q: And the T/C [2]?
A: 100 % of control

Q: `OCC1SC(O)C(O)C(O)C1O` (stereo not given) was tested. Which T/C (dose: 120.0 mg/kg/injection, schedule: Q##DX005 (ip), vehicle: saline) did it give?
A: 97 % of control

Q: And the T/C (dose: 240.0 mg/kg/injection, schedule: Q##DX005 (ip), vehicle: saline)?
A: 92 % of control

Q: What about the T/C (dose: 600.0 mg/kg/injection, schedule: Q01DX001 (ip), vehicle: saline) of the same compound?
A: 102 % of control and 104 % of control

Q: What about the T/C (dose: 1200.0 mg/kg/injection, schedule: Q01DX001 (ip), vehicle: saline) of the same compound?
A: 100 % of control and 104 % of control

Q: With `O=C(O)c1ccccc1C(=O)n1cnc2ccccc21` as the compound, how does the T/C (dose: 50.0 mg/kg/injection, schedule: Q01DX009 (ip), vehicle: saline with Tween-80) read?
A: 87 % of control

Q: What about the T/C [7] of the same compound?
A: 94 % of control

Q: And the T/C [8]?
A: 90 % of control

Q: `N/N=C(/c1ccc(Cl)cc1)N1CCOCC1` was tested. Which T/C (dose: 100.0 mg/kg/injection, schedule: Q04DX003 (ip), vehicle: saline with Tween-80) did it give?
A: 103 % of control

Q: And the T/C (dose: 200.0 mg/kg/injection, schedule: Q04DX003 (ip), vehicle: saline with Tween-80)?
A: 103 % of control

Q: What about the T/C (dose: 400.0 mg/kg/injection, schedule: Q04DX003 (ip), vehicle: saline with Tween-80) of the same compound?
A: 98 % of control

— PubChem BioAssay AID330 (DTP/NCI, 2004)
